Experiments:
T7 RNA polymerase = T7 RNA polymerase (Escherichia phage T7, UniProt P00573); test: In vitro transcription of luciferase mRNA by co-transcriptional capping (IVT yield); assay type: biochemical; details: 8 mM cap analog, luciferase DNA template, 37° C. 2 to 3 hours; compared with Cleancap AG(3′OMe) designated as 100%; FIG. 4
Method: For the mRNA synthesis reaction using the compounds prepared in Example 15 and Example 16 above, a transcription buffer was used, and the composition of the buffer was Tris-Cl buffer: spermidine:Triton X=4:2:1 volume ratio. In the buffer, 50 μg/ml luciferase DNA transcription template, 10 mM ATP, 10 mM CTP, 10 mM UTP, 2 mM GTP, and 8 mM compound prepared in Example 15 or Example 16, 300 KU/ml T7 RNA polymerase, 2 KU/ml RNase inhibitor protein, 20 U/ml inorganic pyrophosphatase, 40 mM Tris-HCl (pH 8.0), 50 mM magnesium chloride, and 10 mM dithiothreitol were added to prepare the transcription reaction mixture. […] The concentration of the purified mRNA sample was determined using a fluorometer instrument, and the total amount of mRNA was calculated by multiplying the concentration and reaction volume. Then, in order to derive the mRNA in vitro transcription (IVT) yield, the total amount of mRNA synthesized using each different cap analog was divided by the input L-DNA content to quantify the IVT yield value according to the cap analog. […] This may be calculated using [Equation 1] below. […]

HeLa cells = test: Translation of luciferase mRNA in HeLa cells (luciferase activity after transfection of capped mRNA); assay type: cell-based
Method: The translational activity of the mRNAs generated by the IVT reactions of each Example 15, Example 16, and ^7mG(3OMe)pppA(2′OMe)pG was evaluated by transfecting the corresponding mRNAs into the HeLa cell line. All mRNAs synthesized through IVT reaction before transfection were subjected to poly(A) tailing process. Specifically, IVT mRNA, whose mRNA synthesis reaction was terminated by adding DNase 1, was mixed with IVT mRNA:10× poly (A) polymerase reaction buffer:10 mM ATP solution:poly (A) polymerase enzyme (4 KU/ml):nuclease-free water=20:10:10:2:58 ratio (volume/volume), reacted at 37° C. for 30 minutes to 1 hour, and then incubated at 4° C. to terminate the reaction. […] Cells were harvested 6, 12, and 24 hours after transfection, and luciferase activity was measured using Renilla-Glo™ Luciferase Assay kit (Promega catalog #E2710) according to the manufacturer's recommendations: After removing the medium from the transfected cells, 50 μl phosphate buffer solution (PBS) was added. Afterwards, 50 μl of Renilla-Glo™ Luciferase Assay reagent was added, mixed, and incubated for 10 minutes, and then luciferase activity was detected using Varioskan LUX Multimode Microplate Reader (Thermo Fisher) (FIG. 5). […]

T7 RNA polymerase, sequence (P00573 whole entry): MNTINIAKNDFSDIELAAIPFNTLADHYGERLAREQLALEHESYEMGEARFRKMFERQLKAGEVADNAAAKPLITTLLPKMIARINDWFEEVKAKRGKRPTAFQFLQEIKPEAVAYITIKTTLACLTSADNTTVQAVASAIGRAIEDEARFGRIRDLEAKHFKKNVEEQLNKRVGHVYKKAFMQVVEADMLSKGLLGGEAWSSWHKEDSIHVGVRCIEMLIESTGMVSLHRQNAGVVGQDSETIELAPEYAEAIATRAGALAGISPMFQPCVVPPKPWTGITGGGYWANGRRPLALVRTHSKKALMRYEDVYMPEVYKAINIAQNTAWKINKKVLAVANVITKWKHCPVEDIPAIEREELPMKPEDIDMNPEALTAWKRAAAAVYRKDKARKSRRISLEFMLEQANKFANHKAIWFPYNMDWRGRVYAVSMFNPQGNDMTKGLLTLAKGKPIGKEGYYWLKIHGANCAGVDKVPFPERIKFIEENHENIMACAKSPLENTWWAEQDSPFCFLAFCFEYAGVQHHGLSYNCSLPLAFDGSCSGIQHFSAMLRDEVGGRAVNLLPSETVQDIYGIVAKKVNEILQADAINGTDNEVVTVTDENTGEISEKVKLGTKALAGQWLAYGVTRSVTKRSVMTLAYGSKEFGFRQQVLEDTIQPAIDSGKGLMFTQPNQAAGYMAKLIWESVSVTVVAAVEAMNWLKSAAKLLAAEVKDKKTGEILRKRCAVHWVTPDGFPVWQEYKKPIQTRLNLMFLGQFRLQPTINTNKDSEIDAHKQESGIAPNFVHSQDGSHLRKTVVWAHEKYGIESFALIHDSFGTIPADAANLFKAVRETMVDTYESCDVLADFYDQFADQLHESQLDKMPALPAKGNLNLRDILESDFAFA

Row | Compound | IVT yield of mRNA relative to ^7mG(3′OMe)pppA(2′OMe)pG (T7 RNA polymerase) | luciferase activity of mRNA capped with the compound (HeLa cells; 100 ng mRNA per well, 6 to 24 hours after transfection, compared with mRNA capped with ^7mG(3′OMe)pppA(2′OMe)pG, FIG. 5) | residual rate of protein expressed by capped mRNA (HeLa cells; 24 hours after transfection, inferred, compared with ^7mG(3′OMe)pppA(2′OMe)pG, FIG. 6)
1 | CO[C@@H]1[C@H](OP(=O)(O)OC[C@H]2O[C@@H](n3cnc4c(=O)[nH]c(N)nc43)[C@H](O)[C@@H]2O)[C@@H](COP(=O)(O)OP(=O)(O)OP(=O)(O)OC[C@H]2O[C@@H](n3c[n+](C)c4c(=O)[nH]c(N)nc43)[C@H](OC(=O)C(C)(C)C)[C@@H]2OC(=O)C(C)(C)C)O[C@H]1n1cnc2c(N)ncnc21.[Na+].[Na+].[Na+] [Example 15, ^7mG(2′,3′ Pivaloyl)pppA(2′ OMe)pG] | almost the same yield | – | –
2 | ^7mG(2′ or 3′monopivaloyl)pppA(2′OMe)pG [Example 16] | almost the same yield | higher luciferase activity | higher

— patent US20250011826A1, “mRNA CAP ANALOGUE AND USE THEREOF” (HANMI FINE CHEMICAL CO., LTD., priority 2021, published 2025)
